The source of these data is patent US5043328A, “Formulations containing unsaturated fatty acids for the synthesis of prostaglandins and hydroxy-fatty acids in biological systems” (priority 1986, dated 1991).

Read-outs that look alike come from different tables or passages of the source. No end group written: not given here.

For this series, the target named is T1, enzyme (from seminal vesicles of sheep) (Ovis aries, UniProt P05979).
T1 sequence (P05979 25-600): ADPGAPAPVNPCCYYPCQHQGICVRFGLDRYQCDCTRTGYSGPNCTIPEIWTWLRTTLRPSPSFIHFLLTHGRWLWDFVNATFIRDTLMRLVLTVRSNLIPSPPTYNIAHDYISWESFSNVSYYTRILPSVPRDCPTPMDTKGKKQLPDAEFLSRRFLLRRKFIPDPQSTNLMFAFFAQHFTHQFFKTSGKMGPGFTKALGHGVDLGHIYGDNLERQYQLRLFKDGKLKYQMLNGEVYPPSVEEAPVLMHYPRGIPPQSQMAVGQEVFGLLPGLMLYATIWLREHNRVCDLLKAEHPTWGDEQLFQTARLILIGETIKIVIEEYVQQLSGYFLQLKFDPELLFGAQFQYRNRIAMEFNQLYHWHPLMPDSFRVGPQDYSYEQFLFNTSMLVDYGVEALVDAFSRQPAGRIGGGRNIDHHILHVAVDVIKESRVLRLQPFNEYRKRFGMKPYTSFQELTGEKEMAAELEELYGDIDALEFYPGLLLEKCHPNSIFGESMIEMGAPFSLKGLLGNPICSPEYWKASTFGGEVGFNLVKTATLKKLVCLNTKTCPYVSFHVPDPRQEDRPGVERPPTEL
As to conditions: for stimulation of prostaglandin synthesis with much smaller quantities of undesired byproducts: mixtures with polyunsaturated fatty acids such as arachidonic acid. As to the method: Method 2: Prostaglandin Synthesis
0.3 ml of 0.03M potassium phosphate buffer of pH=8.0 contains 0.5 mg of enzyme (from seminal vesicles of sheep) (Biochemistry 10 (1971) 2372) or homogenate of the inner kidney medulla (Life Sciences 26 (1980) 765), 2.75 μg of ^14 C-arachidonic acid (0.5 μCi) and 0.5 mg of stimulator, and, if appropriate, 0.5 mg of stabilizer substance (see Table 1). After 10 minutes' incubation at 37° C., the reaction is stopped with 0.05 ml of 1.2M citric acid and the mixture is extracted with twice 0.5 ml of ethyl acetate, the combined extracts are freed of solvent, and the residue is dissolved in 0.2 ml of methanol, diluted 1:1 with water and separated by HPLC (nucleosil C-18 column, 125×4.6 mm, from Bischoff, Leonberg, Germany, solvent 300 ml of acetonitrile, 700 ml of water and 1 ml of glacial acetic acid and after 30 minutes pure methanol). The separation of the radioactive fractions is followed by a monitor (LB 504 from Berthold, Wildbad, Germany). The products formed, such as 6-keto-prostaglandin F2alpha, prostaglandin E2, prostaglandin F2alpha and prostaglandin D2, are separated under these conditions.
The prostaglandins PGE2, PGF2 alpha and PGD2 as products from arachidonic acid where quantified by means of method 2, and the sum was related as "total prostaglandin" to 100%. The quantity of "total prostaglandin" formed without the addition of a stimulator was set at f=1; the quantity formed after stimulation was related thereto. f=2 or f=3 therefore means twice or three times the stimulation under the conditions of method 2. The stability of the sample was investigated by means of method 1 (right-hand column). […] Values greater than 25-28% therefore represent a stabilization, and values smaller than 25-28% represent a destabilization. Example No. 1 was carried out without a stimulator. […] The substances test with respect to stabilization (see Method 1 for quantities) were: A) aqueous solution without stabilizer addition, B) ethanolic solution without further addition, C) pyridine solution, D) with rutin, predissolved in dimethyl sulfoxide, dimethyl sulfoxide then stripped off, E) like B) with lecithin, ethanol stripped off, F) like A) with cytochrome c from horse heart (from Boehringer, Mannheim, Germany), G) like A) with methemoglobin (human) (from Sigman, Munich, Germany), H) like A) with bovine serum albumin (from Calbiochem, Frankfurt, Germany), J) like A) or B), but solvent stripped off, K) like J) with cytochrome c, L) like J) with hemoglobin (human) (from Behringwerke, Marburg, Germany), and M) like J) with human serum albumin (from Behringwerke, Marburg, Germany).

[1] abbreviates: Table 1, share of total prostaglandin (=100%).
Setting [2] is: seminal vesicle enzyme, 10 min, pH 8.
The mark [3] stands for this setting: Table 1, 0.5 mg stimulator, 10 min 37° C., without stimulator f=1.
Where [4] appears, read: Table 2, share of total prostaglandin.

Under setting [1], `O=C(O)CCc1ccc(O)cc1` [Example 8] registered a PGD2 % of 16%, a PGE2 % of 83% and a PGF2alpha % of 1%.
As to `NCCc1ccc(O)cc1` [Example 7], under setting [1], the PGD2 % was 17%, the PGE2 % is given as 80% and the PGF2alpha % is listed as 3%. In addition, the “relative total prostaglandin f” value under setting [2] is listed as 4,0.
With `N[C@@H](CS)C(=O)O` [cysteine], the “stimulation of prostaglandin synthesis with much smaller quantities of undesired byproducts” value (“stimulation of prostaglandin synthesis” for short) (result in words) is listed as “stimulated”.
In the case of LeuTrpMet [Example 29], under setting [3], the “relative total prostaglandin f” value worked out at 10.8. Under setting [1], the PGD2 % is given as 22%, the PGE2 % is listed as 69% and the PGF2alpha % is on record as 9%.
As for TyrTyrTyrOCH3 [Example 30], the “relative total prostaglandin f” value under setting [3] was 5.3. Under setting [1], this compound yielded a PGD2 % of 11%, a PGE2 % of 75% and a PGF2alpha % of 4%.
For `CC(C)(COP(=O)(O)OP(=O)(O)OC[C@H]1O[C@@H](n2cnc3c(N)ncnc32)[C@H](O)[C@@H]1OP(=O)(O)O)[C@@H](O)C(=O)NCCC(=O)NCCS` [Example 45, Coenzyme A, reference compound], where the note is “result in words”, the “stimulation of prostaglandin synthesis” value was “not possible to achieve these advantageous effects”. The “relative total prostaglandin f” value under setting [2] is recorded as 1.0.
`O=C(CCc1ccc(O)cc1)c1c(O)cc(O)cc1O` [Example 60, Phloretin]: under setting [4], the PGD2 % came to 13%, the PGE2 % is 76% and the PGF2alpha % is on record as 11%.
The corresponding values for `O=c1c(O)c(-c2ccc(O)cc2O)oc2cc(O)cc(O)c12` [Example 61, Morin] are 19%, 54% and 27%.
Under setting [1], `Oc1ccccc1` [Example 3, phenol, reference compound] gave a PGD2 % of 18%, a PGE2 % of 77% and a PGF2alpha % of 5%.
Regarding `NC(Cc1c[nH]c2ccc(O)cc12)C(=O)O` (centres unmarked) [Example 19], under setting [1], the PGD2 % was found to be 18%, the PGE2 % stood at 79% and the PGF2alpha % turned out to be 3%. Further, the “relative total prostaglandin f” value under setting [2] is given as 10.1.
Turning to YCEHFRWG [Example 38], where the note is “Table 1, result in words”, the Stimulation entry is reported as “positive”.
Under setting [1], `NCC(O)c1ccc(O)c(O)c1` (centres unmarked) [Example 12] yielded a PGD2 % of 17%, a PGE2 % of 66% and a PGF2alpha % of 17%. Further, the “relative total prostaglandin f” value under setting [2] is 8.3.
As to LeuTrp [Example 27], the “relative total prostaglandin f” value under setting [3] turned out to be 17.0. Under setting [1], this compound showed a PGD2 % of 22%, a PGE2 % of 77% and a PGF2alpha % of 1%.
Regarding `Oc1ccc(O)cc1` [Example 14], under setting [1], the PGD2 % is on record as 19%, the PGE2 % stood at 69% and the PGF2alpha % amounted to 12%.
As to `O[C@H](CS)[C@H](O)CS` [Example 39, Dithiothreitol, reference compound], the “stimulation of prostaglandin synthesis” value (result in words) is given as “not possible to achieve these advantageous effects”. Moreover, the “relative total prostaglandin f” value under setting [2] is given as 0.8.
For `O[C@H](CS)[C@@H](O)CS` [Example 40, Dithioerythritol, reference compound], where the note is “result in words”, the “stimulation of prostaglandin synthesis” value is recorded as “not possible to achieve these advantageous effects”. Further, the “relative total prostaglandin f” value under setting [2] is recorded as 0.85.
`COc1cc(C(=O)O)ccc1O` [Example 15]: under setting [1], the PGD2 % was determined as 17%, the PGE2 % was 71% and the PGF2alpha % was determined as 12%.
The corresponding values for `CC(=O)NC(CS)C(=O)O` (centres unmarked) [Example 37, NAcetylcysteine] are 25%, 61% and 14%.
Under setting [1], `N[C@@H](Cc1ccccc1)C(=O)O` [Example 4, L-phenylalanine, reference compound] had a PGD2 % of 18%, a PGE2 % of 80% and a PGF2alpha % of 2%.
Under setting [4], `CC1=C(C)C(=O)C(CC[C@](C)(O)CCC[C@H](C)CCC[C@H](C)CCCC(C)C)=C(C)C1=O` [Example 51, D-alpha-Tocopheryl-quinone] gave a PGD2 % of 15%, a PGE2 % of 80% and a PGF2alpha % of 5%.
Under setting [4], `Oc1cc(O)c2c(c1)OC(c1ccc(O)c(O)c1)C(O)C2` (centres unmarked) [Example 58, Catechin] returned a PGD2 % of 12%, a PGE2 % of 70% and a PGF2alpha % of 18%.
Consider `NCCS` [Example 43, Cysteamine, reference compound], for which the “stimulation of prostaglandin synthesis” value (result in words) was “not possible to achieve these advantageous effects”. The “relative total prostaglandin f” value under setting [2] came out at 0.9.
Regarding `NC(Cc1ccc(O)c(O)c1)C(=O)O` (centres unmarked) [Example 9], under setting [1], the PGD2 % is given as 16%, the PGE2 % was determined as 70% and the PGF2alpha % was 14%. In addition, the “relative total prostaglandin f” value under setting [2] is on record as 9.4.
Consider TrpAla [Example 26], for which the “relative total prostaglandin f” value under setting [3] is 12.6. Under setting [1], the PGD2 % is listed as 22%, the PGE2 % is given as 77% and the PGF2alpha % amounted to 1%.
`CC(C)(CO)[C@@H](O)C(=O)NCCC(=O)NCCS` [Example 46, Pantetheine, reference compound]: for the setting “result in words”, the “stimulation of prostaglandin synthesis” value is given as “not possible to achieve these advantageous effects”. The “relative total prostaglandin f” value under setting [2] was 0.95.
Regarding TyrTrp [Example 31], the “relative total prostaglandin f” value under setting [3] came out at 6.3. Besides, under setting [1], the PGD2 % is 14%, the PGE2 % is recorded as 73% and the PGF2alpha % stood at 3%.
Turning to `O=C(O)CCc1c[nH]c2ccccc12` [Example 20], under setting [1], the PGD2 % was determined as 16%, the PGE2 % amounted to 82% and the PGF2alpha % is 2%.
Regarding `N[C@@H](CCS)C(=O)O` [homocysteine], the “stimulation of prostaglandin synthesis” value (result in words) is recorded as “stimulated”.
As to GlyTrpGly [Example 25], under setting [3], the “relative total prostaglandin f” value is given as 13.0. Under setting [1], the PGD2 % was 20%, the PGE2 % worked out at 79% and the PGF2alpha % is on record as 1%.
On to `NC(Cc1c[nH]c2ccccc12)C(=O)O` (centres unmarked) [Example 18], for which, under setting [1], the PGD2 % was determined as 21%, the PGE2 % is 76% and the PGF2alpha % was 3%. Also, under setting [2], the “relative total prostaglandin f” value stood at 9.8.
Consider `CNCC(O)c1ccc(O)c(O)c1` (centres unmarked) [Example 13], for which, under setting [1], the PGD2 % worked out at 18%, the PGE2 % was 70% and the PGF2alpha % is recorded as 12%.
As for `N[C@@H](CSSC[C@H](N)C(=O)O)C(=O)O` [Example 41, Cystine, reference compound], under setting [1], the PGD2 % is recorded as 15%, the PGE2 % was 85% and the PGF2alpha % came to 0%. Besides, the “stimulation of prostaglandin synthesis” value (result in words) is given as “not possible to achieve these advantageous effects”. Also, the “relative total prostaglandin f” value under setting [2] is 1.0.
As to `Cc1cccc(O)c1` [Example 2, m-cresol, reference compound], under setting [1], the PGD2 % turned out to be 2%, the PGE2 % came out at 98% and the PGF2alpha % is 0%.
`N[C@H](CS)C(=O)O` [Example 34, D-cysteine]: under setting [1], the PGD2 % is 23%, the PGE2 % is on record as 63% and the PGF2alpha % is 14%.
